Test results from ChEMBL document CHEMBL1201862, “PubChem BioAssay data set” (2004).
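How tested: cells in 96-well plates exposed to compound for 48 hours at five concentrations. The concentration for 50% growth inhibition is given as GI50.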 Active and inactive are the calls of the source. Cut-off read from the data, not from the text of the source: active = GI50 up to about 1.1 µM and inactive = higher.

Legend:
Assay in all cases: NCI anticancer screen, dose series, 48 h
HCC 2998 = test system: HCC 2998
SNB-19 = test system: SNB-19
OVCAR-5 = test system: OVCAR-5
ACHN = test system: ACHN
OVCAR-4 = test system: OVCAR-4
SNB-78 = test system: SNB-78
786-0 = test system: 786-0
A498 = test system: A498
A549 = test system: A549
TK-10 = test system: TK-10
UACC-257 = test system: UACC-257
LXFL 529 = test system: LXFL 529
OVCAR-8 = test system: OVCAR-8
HCT-116 = test system: HCT-116
NCI-H23 = test system: NCI-H23
HOP-92 = test system: HOP-92
SR = test system: SR
CCRF-CEM = test system: CCRF-CEM
MOLT-4 = test system: MOLT-4
RPMI-8226 = test system: RPMI-8226
DMS-114 = test system: DMS-114
SF-268 = test system: SF-268
SW-620 = test system: SW-620
EKVX = test system: EKVX
SN12C = test system: SN12C
UO-31 = test system: UO-31
RXF 393 = test system: RXF 393
CAKI-1 = test system: CAKI-1
KM-20L2 = test system: KM-20L2
HT-29 = test system: HT-29
SF-295 = test system: SF-295
HL-60 = test system: HL-60
K562 = test system: K562
SNB-75 = test system: SNB-75
HCT-15 = test system: HCT-15
SK-MEL-5 = test system: SK-MEL-5
M14 = test system: M14
KM12 = test system: KM12
SK-MEL-28 = test system: SK-MEL-28
LOX IMVI = test system: LOX IMVI
IGROV-1 = test system: IGROV-1
U-251 = test system: U-251
UACC-62 = test system: UACC-62
SK-OV-3 = test system: SK-OV-3
DLD-1 = test system: DLD-1
NCI-H460 = test system: NCI-H460
SK-MEL-2 = test system: SK-MEL-2
Malme-3M = test system: Malme-3M
SF-539 = test system: SF-539

c1ccc(C2(c3ccccc3)SSC3(S2)C2CC4CC(C2)CC3C4)cc1 (centres undefined)
GI50 (HCC 2998): > 100 µM (inactive)
GI50 (SNB-19): > 100 µM (inactive)
GI50 (OVCAR-5): > 100 µM (inactive)
GI50 (ACHN): > 100 µM (inactive)
GI50 (OVCAR-4): > 100 µM (inactive)
GI50 (SNB-78): > 100 µM (inactive)
GI50 (786-0): > 100 µM (inactive)
GI50 (A498): > 100 µM (inactive)
GI50 (A549): > 100 µM (inactive)
GI50 (TK-10): > 100 µM (inactive)
GI50 (UACC-257): > 100 µM (inactive)
GI50 (LXFL 529): > 100 µM (inactive)
GI50 (OVCAR-8): > 100 µM (inactive)
GI50 (HCT-116): > 100 µM (inactive)
GI50 (NCI-H23): > 100 µM (inactive)
GI50 (HOP-92): > 100 µM (inactive)
GI50 (SR): > 59.2 µM (inactive)
GI50 (CCRF-CEM): 39.7 µM (inactive)
GI50 (MOLT-4): > 56.6 µM (inactive)
GI50 (RPMI-8226): 37.2 µM (inactive)
GI50 (DMS-114): > 100 µM (inactive)
GI50 (SF-268): > 100 µM (inactive)
GI50 (SW-620): > 100 µM (inactive)
GI50 (EKVX): > 100 µM (inactive)
GI50 (SN12C): > 100 µM (inactive)
GI50 (UO-31): > 100 µM (inactive)
GI50 (RXF 393): > 100 µM (inactive)
GI50 (CAKI-1): > 100 µM (inactive)
GI50 (KM-20L2): > 100 µM (inactive)
GI50 (HT-29): > 100 µM (inactive)
GI50 (SF-295): > 100 µM (inactive)
GI50 (HL-60): 35.9 µM (inactive)
GI50 (K562): > 100 µM (inactive)
GI50 (SNB-75): > 100 µM (inactive)
GI50 (HCT-15): > 100 µM
GI50 (SK-MEL-5): > 100 µM (inactive)
GI50 (M14): > 100 µM (inactive)
GI50 (KM12): > 100 µM (inactive)
GI50 (SK-MEL-28): > 100 µM (inactive)
GI50 (LOX IMVI): > 100 µM (inactive)
GI50 (IGROV-1): > 100 µM (inactive)
GI50 (U-251): > 100 µM (inactive)
GI50 (UACC-62): > 100 µM (inactive)
GI50 (SK-OV-3): > 100 µM (inactive)
GI50 (DLD-1): > 100 µM (inactive)
GI50 (NCI-H460): > 100 µM (inactive)
GI50 (SK-MEL-2): > 100 µM (inactive)
GI50 (Malme-3M): > 100 µM (inactive)
GI50 (SF-539): > 100 µM (inactive)
